Key:
Assay in all cases: Z'-LYTE kinase panel
Assay type in all cases: biochemical
PRKCB1 (PKC beta I) = molecular target: T1, PRKCB1 (PKC beta I) (Homo sapiens, UniProt P05771)
T1 construct: purchased ThermoFisher (SelectScreen, Z'-LYTE)
In short: (§1)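 Z′-LYTE, standard conditions; 10 µM test compound; values = % inhibition; broad panel of 225 kinases.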

RPS6KA5 (MSK1) = molecular target: T2, RPS6KA5 (MSK1) (Homo sapiens, UniProt O75582)
T2 construct: purchased ThermoFisher (SelectScreen, Z'-LYTE)
T2 sequence (O75582 whole entry): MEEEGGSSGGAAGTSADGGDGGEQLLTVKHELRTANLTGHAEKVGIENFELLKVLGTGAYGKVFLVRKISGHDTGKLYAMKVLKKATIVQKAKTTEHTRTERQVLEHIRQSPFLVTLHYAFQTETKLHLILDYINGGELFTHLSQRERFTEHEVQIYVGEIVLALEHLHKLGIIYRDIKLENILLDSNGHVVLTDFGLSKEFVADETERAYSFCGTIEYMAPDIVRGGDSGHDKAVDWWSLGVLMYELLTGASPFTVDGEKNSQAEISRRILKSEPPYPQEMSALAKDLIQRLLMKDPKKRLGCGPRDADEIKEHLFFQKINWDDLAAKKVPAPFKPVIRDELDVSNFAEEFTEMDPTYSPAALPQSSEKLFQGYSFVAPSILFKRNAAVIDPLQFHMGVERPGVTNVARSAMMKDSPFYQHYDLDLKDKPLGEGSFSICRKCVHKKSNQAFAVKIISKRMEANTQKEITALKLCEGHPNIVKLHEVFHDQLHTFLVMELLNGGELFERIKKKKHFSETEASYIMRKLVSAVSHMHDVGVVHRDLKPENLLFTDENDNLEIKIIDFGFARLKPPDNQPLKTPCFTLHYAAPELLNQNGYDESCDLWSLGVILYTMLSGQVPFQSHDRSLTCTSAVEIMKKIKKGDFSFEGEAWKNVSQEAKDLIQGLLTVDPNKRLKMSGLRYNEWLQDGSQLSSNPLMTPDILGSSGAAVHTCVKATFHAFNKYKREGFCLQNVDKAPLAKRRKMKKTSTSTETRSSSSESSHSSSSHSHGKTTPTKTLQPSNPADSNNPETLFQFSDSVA
In short: as §1

EPHB2 = molecular target: T3, EPHB2 (Homo sapiens, UniProt P29323)
T3 construct: purchased ThermoFisher (SelectScreen, Z'-LYTE)
T3 sequence (P29323 19-1055): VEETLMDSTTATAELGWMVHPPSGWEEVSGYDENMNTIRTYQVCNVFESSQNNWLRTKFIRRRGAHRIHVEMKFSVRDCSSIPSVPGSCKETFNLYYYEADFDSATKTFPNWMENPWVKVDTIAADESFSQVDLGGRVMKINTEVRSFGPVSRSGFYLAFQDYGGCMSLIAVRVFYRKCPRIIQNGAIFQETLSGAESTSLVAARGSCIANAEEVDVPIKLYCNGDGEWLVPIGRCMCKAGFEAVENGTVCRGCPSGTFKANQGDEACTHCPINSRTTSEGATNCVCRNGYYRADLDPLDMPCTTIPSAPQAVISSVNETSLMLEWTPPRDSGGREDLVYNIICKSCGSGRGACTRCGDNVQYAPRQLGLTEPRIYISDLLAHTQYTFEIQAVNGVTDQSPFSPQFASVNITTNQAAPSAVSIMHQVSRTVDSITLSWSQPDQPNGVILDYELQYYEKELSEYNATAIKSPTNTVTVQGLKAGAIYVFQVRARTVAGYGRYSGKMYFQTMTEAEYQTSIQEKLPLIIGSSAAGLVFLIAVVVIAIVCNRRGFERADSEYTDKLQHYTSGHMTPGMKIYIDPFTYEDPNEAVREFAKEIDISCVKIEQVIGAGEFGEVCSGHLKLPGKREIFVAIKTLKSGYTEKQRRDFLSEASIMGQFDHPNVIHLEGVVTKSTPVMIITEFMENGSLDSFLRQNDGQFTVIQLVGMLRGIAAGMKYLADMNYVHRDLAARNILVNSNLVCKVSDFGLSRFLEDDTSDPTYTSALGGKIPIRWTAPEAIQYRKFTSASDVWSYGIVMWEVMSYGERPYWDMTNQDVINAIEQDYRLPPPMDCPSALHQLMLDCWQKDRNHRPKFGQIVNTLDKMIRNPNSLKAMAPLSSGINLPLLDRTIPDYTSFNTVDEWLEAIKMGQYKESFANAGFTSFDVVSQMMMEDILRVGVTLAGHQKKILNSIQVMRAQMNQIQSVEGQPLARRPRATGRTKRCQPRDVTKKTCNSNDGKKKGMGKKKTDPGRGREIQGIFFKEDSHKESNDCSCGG
In short: as §1

MARK2 = molecular target: T4, MARK2 (Homo sapiens, UniProt Q7KZI7)
T4 construct: purchased ThermoFisher (SelectScreen, Z'-LYTE)
T4 sequence (Q7KZI7 whole entry): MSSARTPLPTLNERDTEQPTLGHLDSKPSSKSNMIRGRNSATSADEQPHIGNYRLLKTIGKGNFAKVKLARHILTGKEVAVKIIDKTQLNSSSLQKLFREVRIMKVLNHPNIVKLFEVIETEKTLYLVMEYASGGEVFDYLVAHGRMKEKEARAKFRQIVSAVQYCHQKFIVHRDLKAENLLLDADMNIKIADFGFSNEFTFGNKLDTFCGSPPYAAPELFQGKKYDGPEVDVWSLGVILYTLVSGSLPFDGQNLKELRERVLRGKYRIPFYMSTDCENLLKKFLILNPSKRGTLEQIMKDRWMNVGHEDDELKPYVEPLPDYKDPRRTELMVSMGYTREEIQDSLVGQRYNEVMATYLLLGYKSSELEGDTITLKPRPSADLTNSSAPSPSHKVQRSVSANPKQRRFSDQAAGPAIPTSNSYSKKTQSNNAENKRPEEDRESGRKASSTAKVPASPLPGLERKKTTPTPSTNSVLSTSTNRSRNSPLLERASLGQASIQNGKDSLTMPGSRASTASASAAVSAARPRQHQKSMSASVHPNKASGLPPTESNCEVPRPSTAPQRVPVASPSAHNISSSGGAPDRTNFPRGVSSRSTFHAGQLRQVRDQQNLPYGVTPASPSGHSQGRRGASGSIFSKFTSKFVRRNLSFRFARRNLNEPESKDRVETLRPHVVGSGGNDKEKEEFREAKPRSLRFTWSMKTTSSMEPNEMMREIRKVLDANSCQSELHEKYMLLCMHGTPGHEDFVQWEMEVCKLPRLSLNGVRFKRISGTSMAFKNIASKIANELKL
In short: as §1

SRC = molecular target: T5, SRC (Homo sapiens, UniProt P12931)
T5 construct: purchased ThermoFisher (SelectScreen, Z'-LYTE)
In short: as §1

PRKCA (PKC alpha) = molecular target: T6, PRKCA (PKC alpha) (Homo sapiens, UniProt P17252)
T6 construct: purchased ThermoFisher (SelectScreen, Z'-LYTE)
In short: as §1

TAOK2 (TAO1) = molecular target: T7, TAOK2 (TAO1) (Homo sapiens, UniProt Q9UL54)
T7 construct: purchased ThermoFisher (SelectScreen, Z'-LYTE)
T7 sequence (Q9UL54 1-1235): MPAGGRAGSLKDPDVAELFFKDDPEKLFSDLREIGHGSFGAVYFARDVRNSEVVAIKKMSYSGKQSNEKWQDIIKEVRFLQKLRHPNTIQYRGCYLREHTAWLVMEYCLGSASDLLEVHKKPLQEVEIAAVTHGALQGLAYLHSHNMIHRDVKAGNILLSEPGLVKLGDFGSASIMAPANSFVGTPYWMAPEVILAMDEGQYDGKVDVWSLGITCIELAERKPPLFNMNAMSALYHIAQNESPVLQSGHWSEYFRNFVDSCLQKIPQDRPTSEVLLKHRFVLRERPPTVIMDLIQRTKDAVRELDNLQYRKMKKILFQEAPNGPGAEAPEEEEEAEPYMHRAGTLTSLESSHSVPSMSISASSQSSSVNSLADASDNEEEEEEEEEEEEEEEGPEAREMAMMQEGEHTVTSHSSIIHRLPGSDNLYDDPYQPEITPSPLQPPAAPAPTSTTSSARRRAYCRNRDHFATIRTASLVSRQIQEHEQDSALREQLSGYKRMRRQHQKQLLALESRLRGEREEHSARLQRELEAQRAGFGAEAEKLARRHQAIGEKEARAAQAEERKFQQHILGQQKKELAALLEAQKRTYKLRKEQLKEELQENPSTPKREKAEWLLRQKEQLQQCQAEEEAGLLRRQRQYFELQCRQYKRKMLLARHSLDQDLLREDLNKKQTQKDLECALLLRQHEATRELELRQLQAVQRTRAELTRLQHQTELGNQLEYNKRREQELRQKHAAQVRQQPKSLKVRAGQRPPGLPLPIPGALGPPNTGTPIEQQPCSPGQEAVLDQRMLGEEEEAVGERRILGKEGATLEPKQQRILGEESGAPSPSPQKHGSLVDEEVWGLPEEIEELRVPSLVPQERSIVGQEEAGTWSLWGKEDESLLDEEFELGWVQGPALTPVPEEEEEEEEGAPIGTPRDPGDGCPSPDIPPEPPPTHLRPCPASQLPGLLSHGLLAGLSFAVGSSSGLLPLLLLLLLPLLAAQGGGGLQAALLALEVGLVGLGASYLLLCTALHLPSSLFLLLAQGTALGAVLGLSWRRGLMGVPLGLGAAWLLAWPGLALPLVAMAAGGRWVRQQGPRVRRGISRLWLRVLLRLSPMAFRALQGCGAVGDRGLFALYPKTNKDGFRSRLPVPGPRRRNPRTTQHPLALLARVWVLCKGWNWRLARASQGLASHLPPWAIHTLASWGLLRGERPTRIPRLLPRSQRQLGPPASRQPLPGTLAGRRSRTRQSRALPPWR
In short: as §1

MKNK1 (MNK1) = molecular target: T8, MKNK1 (MNK1) (Homo sapiens, UniProt Q9BUB5)
T8 construct: purchased ThermoFisher (SelectScreen, Z'-LYTE)
T8 sequence (Q9BUB5 whole entry): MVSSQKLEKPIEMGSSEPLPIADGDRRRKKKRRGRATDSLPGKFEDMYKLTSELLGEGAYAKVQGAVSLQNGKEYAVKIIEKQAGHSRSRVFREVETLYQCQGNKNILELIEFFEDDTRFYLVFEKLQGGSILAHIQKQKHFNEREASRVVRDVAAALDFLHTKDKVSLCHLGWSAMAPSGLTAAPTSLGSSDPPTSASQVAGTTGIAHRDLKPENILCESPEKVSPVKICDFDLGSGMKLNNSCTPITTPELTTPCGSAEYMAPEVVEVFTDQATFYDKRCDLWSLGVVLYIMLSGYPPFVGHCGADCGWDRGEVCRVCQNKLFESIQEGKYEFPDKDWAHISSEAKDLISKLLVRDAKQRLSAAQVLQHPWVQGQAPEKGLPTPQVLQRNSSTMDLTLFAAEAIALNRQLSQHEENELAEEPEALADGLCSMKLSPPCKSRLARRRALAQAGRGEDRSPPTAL
In short: as §1

T1 sequence (P05771 whole entry): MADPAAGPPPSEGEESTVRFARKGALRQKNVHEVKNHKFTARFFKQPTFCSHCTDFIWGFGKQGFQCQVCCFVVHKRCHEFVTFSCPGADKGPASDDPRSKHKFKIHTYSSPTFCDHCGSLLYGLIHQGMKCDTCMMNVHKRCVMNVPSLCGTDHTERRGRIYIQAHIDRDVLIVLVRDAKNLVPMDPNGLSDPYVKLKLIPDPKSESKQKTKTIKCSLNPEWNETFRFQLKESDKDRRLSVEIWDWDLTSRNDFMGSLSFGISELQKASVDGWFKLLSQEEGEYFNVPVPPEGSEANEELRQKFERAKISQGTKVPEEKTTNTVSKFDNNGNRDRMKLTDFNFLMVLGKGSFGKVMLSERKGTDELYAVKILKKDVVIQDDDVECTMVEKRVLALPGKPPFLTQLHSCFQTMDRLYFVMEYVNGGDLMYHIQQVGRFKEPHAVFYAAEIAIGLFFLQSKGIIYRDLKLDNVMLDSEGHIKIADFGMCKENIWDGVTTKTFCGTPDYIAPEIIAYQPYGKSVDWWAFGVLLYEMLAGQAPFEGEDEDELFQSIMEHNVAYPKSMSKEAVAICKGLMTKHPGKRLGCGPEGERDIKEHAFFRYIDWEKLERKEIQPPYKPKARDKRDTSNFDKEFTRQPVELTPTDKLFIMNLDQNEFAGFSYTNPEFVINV

Row | Compound | inhibition at 10 µM (PRKCB1 (PKC beta I)) [%] | inhibition at 10 µM (RPS6KA5 (MSK1)) [%] | inhibition at 10 µM (EPHB2) [%] | inhibition at 10 µM (MARK2) [%] | inhibition at 10 µM (SRC) [%] | inhibition at 10 µM (PRKCA (PKC alpha)) [%] | inhibition at 10 µM (TAOK2 (TAO1)) [%] | inhibition at 10 µM (MKNK1 (MNK1)) [%] | PRKCB1 (PKC beta I) % Inhibition (PRKCB1 (PKC beta I); 10 µM compound, ATP Km app) [%] | RPS6KA5 (MSK1) % Inhibition (RPS6KA5 (MSK1); 10 µM compound, ATP Km app) [%] | EPHB2 % Inhibition (EPHB2; 10 µM compound, ATP Km app) [%] | MARK2 % Inhibition (MARK2; 10 µM compound, ATP Km app) [%] | SRC % Inhibition (SRC; 10 µM compound, ATP Km app) [%] | PRKCA (PKC alpha) % Inhibition (PRKCA (PKC alpha); 10 µM compound, ATP Km app) [%] | TAOK2 (TAO1) % Inhibition (TAOK2 (TAO1); 10 µM compound, ATP Km app) [%] | MKNK1 (MNK1) % Inhibition (MKNK1 (MNK1); 10 µM compound, ATP Km app) [%]
1 | Cc1ncc(-c2nc(Nc3ccc(C(=O)NCCN4CCCCC4)cc3)ncc2F)n1C(C)C [Compound 3] | 86 | 86 | 97 | 89 | 79 | 102 | 97 | 68 | – | – | – | – | – | – | – | –
2 | Cc1cc(Nc2nc(N)nn2C(=O)NC(C)C)ccc1Cl [Compound 5] | 2.25 | 6.35 | 7 | 24 | 26 | 7 | 21 | 7 | – | – | – | – | – | – | – | –
3 | XMD8-92 [Compound 2, reference compound] | – | – | – | – | – | – | – | – | 13 | 47 | 18 | 9 | 11 | 47 | 39 | 3.65

Source: publication PMC4854315, “Discovery of a novel allosteric inhibitor-binding site in ERK5: comparison with the canonical kinase hinge ATP-binding site” (Acta Crystallographica. Section D, Structural Biology, 2016)
